Results published in publication PMC10313808, “Lipoxygenase inhibitory synthetic derivatives of methyl gallate regulate gene expressions of COX-2 and cytokines to reduce animal model arthritis” (Scientific Reports, 2023).
Where two headings read alike, the source gives them in different places.

Key:
[1] = molecular target: T1, Lipoxidase from Glycine max (15- LOX) (Glycine max, UniProt P08170); assay: Michaelis–Menten enzyme kinetics (Lineweaver-Burk); assay type: biochemical; conditions: for IC50: Cheng–Prusoff from Ki
T1 construct: purchased Sigma (Sigma-Aldrich, UK)
T1 sequence (P08170 1-839): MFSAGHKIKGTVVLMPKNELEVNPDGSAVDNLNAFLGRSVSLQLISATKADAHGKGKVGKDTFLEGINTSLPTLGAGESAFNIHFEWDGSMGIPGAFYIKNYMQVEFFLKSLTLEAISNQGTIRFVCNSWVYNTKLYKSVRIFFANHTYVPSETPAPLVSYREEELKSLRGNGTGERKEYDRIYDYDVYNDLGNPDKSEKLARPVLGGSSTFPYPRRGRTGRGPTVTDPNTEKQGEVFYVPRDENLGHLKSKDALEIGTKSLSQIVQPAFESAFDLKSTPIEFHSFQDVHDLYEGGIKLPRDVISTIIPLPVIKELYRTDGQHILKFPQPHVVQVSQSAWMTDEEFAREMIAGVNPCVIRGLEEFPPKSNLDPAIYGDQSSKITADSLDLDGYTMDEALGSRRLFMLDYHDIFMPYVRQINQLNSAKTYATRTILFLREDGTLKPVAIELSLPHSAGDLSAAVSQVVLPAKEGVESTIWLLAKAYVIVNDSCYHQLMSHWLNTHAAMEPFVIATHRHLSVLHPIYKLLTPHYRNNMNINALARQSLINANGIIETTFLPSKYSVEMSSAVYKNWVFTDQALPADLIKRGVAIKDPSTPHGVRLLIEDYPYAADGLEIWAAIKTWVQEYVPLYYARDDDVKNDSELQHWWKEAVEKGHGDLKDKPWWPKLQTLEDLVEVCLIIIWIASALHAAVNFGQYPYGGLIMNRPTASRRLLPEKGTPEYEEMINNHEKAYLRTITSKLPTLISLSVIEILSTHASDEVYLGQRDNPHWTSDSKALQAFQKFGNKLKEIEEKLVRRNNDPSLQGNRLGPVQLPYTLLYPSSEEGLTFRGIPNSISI
Method: To identify the mode of inhibition, enzyme kinetics assay was performed with MGSDs. For the kinetic analysis different substrate concentrations of 18, 27, 36, 45, 54, 63 µM were prepared in 0.2 mM borate buffer (H 9)[16]. The assay mixture was made of 50 µL of LOX, 50 µL of the test solution and different concentrations of the substrate. The final volume was made upto 2 mL with corresponding borate buffer quantity. The activity of LOX was measured by the formation of […], which was monitored at 234 nm on spectrophotometer, (HITACHI U 2900, Japan). The reaction was measured at a time span of 300 s. The same experiment was repeated in the presence of 0.1, 0.08 and 0.06 μM concentration of MGSDs. The Line Weaver-Burk plot was constructed and Michaelis–Menten constant (Km) and Maximal Velocity (Vmax) were determined from the plot. From the Km and Vmax obtained, the inhibitor constant, Ki was calculated using the following equation derived from the Michaelis–Menten Equation: Km′=Km1+I0/Ki. The IC50was calculated using the Cheng–Prusoff equation, Ki=IC50/1+S/Km.

[2] = molecular target: T2, LOX (Glycine max, UniProt P08170); assay: Fluorescence quenching studies; assay type: binding; conditions: 296 K, pH 9
T2 construct: purchased Sigma (Sigma-Aldrich, UK)
T2 sequence (P08170 1-839): T1 sequence (P08170 1-839)
Text: To analyze the type of mechanism, the data of fluorescence of LOX was plotted, as relative fluorescence intensity (F0/F), against MGSDs. Here F and F0 are the fluorescence intensity in the presence and absence of MGSDs respectively. The Stern–Volmer constants were obtained from the plot by linear regression using the expression: F0/F=1+KsvQ.
Ksv is the Stern–Volmer constant and [Q] is the respective concentration of derivatives. Ksv which depicts the binding affinity between the fluorophore (protein) and quencher (ligand), were obtained from the slopes of the plot (Supplementary Fig. 15). […] The Fluorescence quenching data provided information about the binding constant (K), the number of binding sites (n), and the values could be arrived by applying the equation. Log F0-F/F=log K+nlogQ.
The Fluoromax-4 spectrophotometer (Spectra-NanoLED source 278) was used for studying fluorescence quenching of the compound. Bandwidth set at 5 nm for both excitation and emission spectra. The wavelength was set for excitation at 280 nm and the emission was recorded at 290–450 nm using 1.0 cm cell at 296 K temperature. The LOX with a concentration of 7 μM, dissolved in borate buffer at pH 9 and ligands at the concentrations of 35, 70, 105, 140, 175, 210, 245 and 280 μM were used for the experiment.

[3] = Solubility noted on sample preparation; assay type: physicochemical; conditions: water
[4] = test system: FCA-induced arthritis; conditions: for ALP / SGOT / SGPT: FCA rats, serum; for liver damage: rat, in vivo
Method: Chronic inflammation induced by Freund's Complete Adjuvant contains a suspension of heat-killed Mycobacterium tuberculosis in the vehicle (Chondrex, Labex Corporation). 100 μL of FCA (10 mg/mL) was injected intradermally to the left-hand paw of SD rats[42]. […] Induction of inflammation became chronic by 9–12 days and then rats were divided into 7 groups having 6 rats in each group. Everything possible was done to minimize the suffering of experimental animals. Minimum number of rats only were drafted to generate reliable data. 42 rats were randomly allocated into seven groups (6 × 7).
Group I (n = 6) served as normal rats that received an equal volume of vehicle control. Group II (n = 6) was arthritic model control treated with vehicle only. Group III (n = 6) was arthritic control which received the diclofenac (10 mg.kg^–1). Groups IV (n = 6), V (n = 6), VI (n = 6) and VII (n = 6) were treated with a low and high dose of methyl gallate (20 mg.kg^–1, 40 mg.kg^–1) and MGSD 1 (1 mg.kg^–1, 10 mg.kg^–1). The drugs were orally administered through oral gavage daily in PBS vehicle for 28 days.
Blood was drawn from jugular vein[43] and collected in heparinized tubes and used for further analysis. By using Horiba 5-part hematology analyzer the blood parameters like RBC, WBC, neutrophil and hemoglobin were analyzed. Serum parameters were analyzed using Stat Fax autoanalyzer. Serum glutamic pyruvic transaminase (SGPT), serum glutamic oxaloacetic transaminase (SGOT) and alkaline phosphatase (ALP) were determined using standard diagnostic kits (Proton, Accurex).

[5] = molecular target: T1, Lipoxidase from Glycine max (15- LOX); design: method as in PMID 29847215; conditions: read-out: IC50 (LOX enzyme); previous study ref 16; cited from earlier work

| IC50 [1] [nM] | IC50 ([1]; abstract) [nM] | Ki ([1]; linoleic acid substrate, competitive) [nM] | Kd ([2]; read-out: Binding constant (K) (converted)) [nM] | Quenching constant (Ksv) ([2]; Stern–Volmer) [M⁻¹] | solubility [3] | SMILES | ALP ([4]; 1 mg.kg^−1 oral) | SGOT ([4]; 1 mg.kg^−1 oral) [IU/L] | SGPT ([4]; 1 mg.kg^−1 oral) [IU/L] | ALP ([4]; 10 mg.kg^−1 oral) | SGOT ([4]; 10 mg.kg^−1 oral) [IU/L] | SGPT ([4]; 10 mg.kg^−1 oral) [IU/L] | liver damage [4] | SGOT ([4]; 20 mg.kg^−1 oral) [IU/L] | SGPT ([4]; 20 mg.kg^−1 oral) [IU/L] | SGOT ([4]; 40 mg.kg^−1 oral) [IU/L] | SGPT ([4]; 40 mg.kg^−1 oral) [IU/L] | IC50 [5] [nM] |
| --- | --- | --- | --- | --- | --- | --- | --- | --- | --- | --- | --- | --- | --- | --- | --- | --- | --- | --- |
| 102 | 100 | 30 | 752000 | 6200 | soluble in water | O=C(O)COc1cc(C(=O)O)cc(OCC(=O)O)c1OCC(=O)O [MGSD 1, 2,2′,2″-((5-carboxybenzene-1,2,3-triyl)tris(oxy)) tri acetic acid] | 435 ± 72.16 | 162 ± 7.57 | 85 ± 2.60 | 309 ± 54.42 | 179 ± 3.52 | 82 ± 1.73 | did not show any liver damage | – | – | – | – | – |
| – | – | – | – | – | – | COC(=O)c1cc(O)c(O)c(O)c1 [Methyl gallate] | – | – | – | – | – | – | did not show any liver damage | 243 ± 13.28 | 94 ± 3.17 | 183 ± 6.38 | 102 ± 2.18 | 30700 |
